Test results as given in patent US5492905A, “1-bolizazepin-2,5-diones” (Zeneca Limited, priority 1992, dated 1996).

Key:
[1] = target: T1, glycine receptor of the NMDA receptor complex (Rattus norvegicus, UniProt P35439); test: [3H]-glycine binding assay; design: species or system Sprague-Dawley rats; details: 20 nM [3H]-glycine, rat neuronal synaptic membranes (cortices and hippocampi), pH 7.1, 30 min, 4° C.
T1 construct: neuronal synaptic membranes are prepared from adult (about 250 g) male Sprague-Dawley rats; from tissue; host or cells: synaptic membranes of cortices and hippocampi of adult male Sprague-Dawley rats
Experimental: The actions of compounds of formula I as antagonists at the glycine receptor of the NMDA receptor complex can be shown by standard tests such as the [^3 H]-glycine binding assay, by functional assays in vitro such as tests for measuring glutamate evoked contractions of the guinea pig ileum, and by tests in vivo such as ischemia induced by carotid occlusion in the gerbil model.
In the [^3 H]-glycine binding assay, neuronal synaptic membranes are prepared from adult (about 250 g) male Sprague-Dawley rats. Freshly dissected cortices and hippocampi are homogenized in 0.32M sucrose (110 mg/mL). Synaptosomes are isolated by centrifugation (1000 xg, 10 min), the supernatant is pelleted (20,000 xg, 20 min) and resuspended in double-distilled water. The suspension was centrifuged for 20 minutes at 8,000 xg. The resulting supernatant and buffy coat are washed twice (48,000 xg, 10 mins, resuspension in double-deionized water). The final pellet is quickly frozen (dry ice ethanol bath) under double-deionized water and stored at -70 ° C. […]
For [^3 H]-glycine binding at the N-methyl-D-aspartate receptor, 20 nM [^3 H]-glycine (40-60 Ci/mmol, New England Nuclear, Boston, Mass.) is incubated with the membranes suspended in 50 mM tris (hydroxymethyl)aminomethane citrate, pH 7.1 for 30 minutes at 4° C. […] Radioactivity is estimated by liquid scintillation counting. […]

[2] = tested on: neuronal damage in the hippocampus; test: gerbil ischemic model (bilateral carotid occlusion), neuroprotection; format: in vivo, Mongolian gerbils; details: dosed twice with 20 mg/kg body weight ip (e.g. 45 min before and 5 min after occlusion); 10 min occlusion; brains taken after 4 days
Experimental: When testing in vivo using the gerbil ischemic model, adult female Mongolian gerbils (50-70 g) are anesthetized with 2 to 3% halothane. The bilateral common carotid arteries at the neck are exposed and occluded with microaneurysm clips. After 10 min (unless specified), the clips are removed and the blood flow through the carotid arteries is restored and the skin is sutured. Test compounds are administered intraperitoneally both pre- and post-occlusion, for example 45 minutes before and 5 minutes after occlusion of the carotid arteries. Sham-operated animals are treated in the same manner except that the arteries are not clamped. Gross behavioral observations along with motor activity are recorded for 2 hr on the first (24 hr) day following the occlusion. After 4 days, subjects are sacrificed (decapitation), brains are removed, fixed, sectioned and stained with hematoxylin/eosin and cresyl violet.
The brain sections are rated for neuronal damage in the hippocampus using the following rating scale:
1=slight damage (up to 25%) - restricted CA1/subiculum border
2=moderate damage (up to 50%) - obvious damage, restricted to less than half of CA1 field
3=marked damage (up to 75%) - involving greater than half of CA1 field
4=damage extending beyond CA1 field
Results can be reported as the percentage of neuroprotection afforded by a particular dose and dosing regimen.
Sections (7 micron) are evaluated from each brain. Occasionally, asymmetrical damage may be noted and the rating assigned is the average score of the two sides. The average brain damage rating score for each group is recorded, and the damage scores of the drug treated group are compared to the vehicle-treated group using Wilcoxcon-Rank Sum test.

SMILES	IC50 [1]	neuroprotection (relative to sham-operated control) [2]
O=c1[nH]c2cc(Cl)ccc2c(=O)cc1NC[C@H](O)[C@@H](O)[C@H](O)[C@H](O)CO [Example 19, 8-Chloro-3-(D-glucamino)-2,5-dioxo-2,5-dihydro-1H-benz[b]azepine]	~43 µM	about 80%
O=c1[nH]c2cc(Cl)ccc2c(=O)cc1NCCc1ccccc1 [Example 6, 8-Chloro-2,5-dioxo-3-phenethylamino-2,5-dihydro-1H-benz[b]azepine]		about 43%
O=c1[nH]c2cc(Cl)ccc2c(=O)cc1N1CCCC1 [Example 12]	~470 µM	about 62%
